Data on three molecules can be found in patent US9409893B2, “Heteroaryl derivatives and uses thereof” (Jacobus Pharmaceutical Company, Inc., priority 2012, dated 2016).

The test system of one assay is P. falciparum strain D6. The assay can be described thus: [3H]-hypoxanthine growth inhibition assay, P. falciparum D6. The format is cell-based. The note with it: Plasmodium falciparum; P. falciparum D6 (sensitive to chloroquine and pyrimethamine), [3H]-hypoxanthine incorporation; read-out: D6 IC50. In outline:
(§1)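 Parasites cultured in human O Rh+ RBCs in RPMI-1640-LPLF (low PABA and folic acid) with 10% human plasma, pH 6.9, 37° C, 5% O2/5% CO2/90% N2. Sorbitol-synchronised ring-stage cultures started at 1% parasitaemia; growth measured as [3H]-hypoxanthine incorporation in hypoxanthine-free medium. Compound stocks 1 mM in DMSO.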

The test system of another assay is P. falciparum strain W2. The assay can be described thus: [3H]-hypoxanthine growth inhibition assay, P. falciparum W2. Format: cell-based. The note with it: Plasmodium falciparum; P. falciparum W2 (resistant to chloroquine and pyrimethamine), [3H]-hypoxanthine incorporation; read-out: W2 IC50. An outline of the steps: as §1
Assay [1] has as its system Plasmodium berghei (KBG-173 strain). As to the kind of experiment: Plasmodium berghei assay in vivo (modified Thompson Test) in CD-1 mice. The note with it: bid on days 3, 4 and 5; for Average Days Survival: 31 day experiment. As to the method: In vivo antimalarial activity was tested in male or female Charles River CD-1 mice that were 4-5 weeks old and weighed 20-25 g They were housed in groups of 3 or 4 in standard plastic cages with wire tops, Bed-o-Cob® bedding, 12 hr/day of light, and maintained at 75° F. They were fed a standard Ralston Purina mouse chow and the cages and bottles were changed twice a week. Test compounds were ground in a mortar and pestle and diluted with enough vehicle to give a volume of 10 mL/kg of mouse weight. The oral doses were prepared in 0.5% hydroxyethylcellulose (Union Carbide Corp. WP 4400)/0.1% Tween-80 (Fisher Scientific T164-500). The amount of drug was calculated on the free base weight. The mice were infected intraperitoneally on day 0 with 5×10^4 erythrocytes parasitized with Plasmodium berghei (KBG-173 strain) from a donor mouse having a parasitemia between 5-10%. On days 3, 4 and 5 the test compounds were administered bid, spaced 6 hr apart, by oral gavage to the mice. Activity was measured by survival, with full activity defined as all animals living at day 31. Partial activity is defined as days of increased survival versus the infected non-treated controls. This in vivo model is a modification of the Thompson Test. For further description see Ager, A. L, Jr. Rodent Malaria Models. In Handbook of Experimental Pharmacology: Antimalarial Drugs. 1. 68/1; Peters, W., Richards, W. H. G., Eds.: Springer-Verlag: Berlin, 1984, pp. 231-33.

Setting [2] is: Plasmodium berghei, 744 h, 4 mg/kg/day oral, CD-1 mice infected with P. berghei, read-out: Number of mice alive at day 31 (converted).
Setting [3] is: Plasmodium berghei, 744 h, 8 mg/kg/day oral, CD-1 mice infected with P. berghei, read-out: Number of mice alive at day 31 (converted).
Setting [4] is: Plasmodium berghei, 744 h, 16 mg/kg/day oral, CD-1 mice infected with P. berghei, read-out: Number of mice alive at day 31 (converted).
Setting [5] is: Plasmodium berghei, 744 h, 32 mg/kg/day oral, CD-1 mice infected with P. berghei, read-out: Number of mice alive at day 31 (converted).
The mark [6] stands for this setting: Plasmodium berghei, 744 h, 64 mg/kg/day oral, CD-1 mice infected with P. berghei, read-out: Number of mice alive at day 31 (converted).

Each structure is given as a SMILES string. Marks after values point to notes of the source that are not given here.

`CC(C)(C)NCc1cc(C(C)(C)C)cc(-c2ccc(C(F)(F)F)nc2)c1O.Cl` [Example 1, 4-(tert-Butyl)-2-((tert-butylamino)methyl)-6-(6-(trifluoromethyl)pyridin-3-yl)phenol hydrochloride]: the results for the IC50 in the assay with P. falciparum strain D6 and in the assay on P. falciparum strain W2 were 13 nM and 4 nM, respectively. In addition, the “Average Days Survival” value in assay [1] (2 mg/kg/day oral) is greater than 27 days; in assay [1] (4 mg/kg/day oral), >31* days; in assay [1] (8 mg/kg/day oral), >31* days; in assay [1] (16 mg/kg/day oral), >31* days; in assay [1] (32 mg/kg/day oral) it was >31* days; in assay [1] (64 mg/kg/day oral), >31* days. Further, the responders at 2 mg/kg in assay [1] (Plasmodium berghei, 744 h, 2 mg/kg/day oral, CD-1 mice infected with P. berghei, read-out: Number of mice alive at day 31 (converted)) was 71.4%. The responders at 4 mg/kg in assay [1] (setting [2]) was 100%. In assay [1] (setting [3]), the responders at 8 mg/kg is 100%. The responders at 16 mg/kg in assay [1] (setting [4]) was 100%. In assay [1] (setting [5]), the responders at 32 mg/kg was 100%. The responders at 64 mg/kg in assay [1] (setting [6]) was 100%.
For the molecule `CC(C)(C)NCc1cc(C(C)(C)C)cc(-c2cnc(C(F)(F)F)nc2)c1O.Cl` [Example 33, 4-(tert-Butyl)-2-((tert-butylamino)methyl)-6-(2-(trifluoromethyl)pyrimidin-5-yl)phenol hydrochloride], the IC50 in the assay on P. falciparum strain D6 is 10 nM; in the assay on P. falciparum strain W2, 3 nM. In addition, the “Average Days Survival” value in assay [1] (4 mg/kg/day oral) is reported as greater than 30 days; in assay [1] (8 mg/kg/day oral) it was >31* days; in assay [1] (16 mg/kg/day oral) it was >31* days; in assay [1] (32 mg/kg/day oral) it was >31* days; in assay [1] (64 mg/kg/day oral), >31* days. Moreover, the responders at 4 mg/kg in assay [1] (setting [2]) was 85.7%. Further, the responders at 8 mg/kg in assay [1] (setting [3]) is 100%. For the same molecule, the responders at 16 mg/kg in assay [1] (setting [4]) was 100%. Also, in assay [1] (setting [5]), the responders at 32 mg/kg was 100%. In assay [1] (setting [6]), the responders at 64 mg/kg was 100%.
In the case of `CC(C)(C)NCc1cc(C(C)(C)C)cc(-c2cnc(C(F)(F)F)c(F)c2)c1O.Cl` [Example 34, 4-(tert-Butyl)-2-((tert-butylamino)methyl)-6-(5-fluoro-6-(trifluoromethyl)pyridin-3-yl)phenol hydrochloride], the IC50 was 8 nM in the assay with P. falciparum strain D6 and 2 nM in the assay on P. falciparum strain W2. Besides, the “Average Days Survival” value is recorded as greater than 28 days in assay [1] (4 mg/kg/day oral); >31* days in assay [1] (8 mg/kg/day oral); >31* days in assay [1] (16 mg/kg/day oral); >31* days in assay [1] (32 mg/kg/day oral); >31* days in assay [1] (64 mg/kg/day oral). The responders at 4 mg/kg in assay [1] (setting [2]) is 85.7%. Further, the responders at 8 mg/kg in assay [1] (setting [3]) is 100%. For the same molecule, the responders at 16 mg/kg in assay [1] (setting [4]) was 100%. Further, the responders at 32 mg/kg in assay [1] (setting [5]) was 100%. Also, the responders at 64 mg/kg in assay [1] (setting [6]) was 100%.
